Results as given in patent publication US8431514B2, “4-cyano-3-benzoylamino-N-phenyl-benzamides for use in pest control” (Syngenta Crop Protection LLC, priority 2009, dated 2013).
Read-outs that look alike come from different tables or passages of the source.

Key:
Assay type in all cases: in vivo
Heliothis virescens = Heliothis virescens (tobacco budworm) egg test on artificial diet; details: 96 h, application rate 200 ppm (concentration in well 18 ppm), eggs 0-24 h old on artificial diet, egg mortality, larval mortality and growth regulation after 4 days
Procedure: (§1) These Examples illustrate the insecticidal and acaricidal properties of the compounds of formula (I). The tests were performed as follows:
(§2) Cotton leaf discs were placed on agar in a 24-well microtiter plate and sprayed with test solutions at an application rate of 200 ppm. After drying, the leaf discs were infested with 5 L1 larvae. The samples were checked for mortality, feeding behavior, and growth regulation 3 days after treatment (DAT). The following compound gave at least 80% control of Spodoptera littoralis: A1, A2, A3, A4, A5, A6, A7, A8, A9, A10, A11, A12, A14, A15, A16, A17, A18, A19, A20. Heliothis Virescens (Tobacco Budworm): Eggs (0-24 h old) were placed in 24-well microtiter plate on artificial diet and treated with test solutions at an application rate of 200 ppm (concentration in well 18 ppm) by pipetting. After an incubation period of 4 days, samples were checked for egg mortality, larval mortality, and growth regulation. The following compound gave at least 80% control of Heliothis virescens: A1, A2, A3, A4, A5, A6, A7, A8, A9, A10, A11, A12, A14, A15, A16, A17, A18, A19, A20. Plutella Xylostella (Diamond Back Moth): 24-well microtiter plate (MTP) with artificial diet was treated with test solutions at an application rate of 200 ppm (concentration in well 18 ppm) by pipetting. After drying, the MTP's were infested with L2 larvae (7-12 per well). After an incubation period of 6 days, samples were checked for larval mortality and growth regulation. The following compound gave at least 80% control of Plutella xylostella: A1, A2, A3, A4, A5, A6, A7, A8, A9, A10, A11, A12, A13, A14, A15, A16, A17, A18, A19, A20. Diabrotica Balteata (Corn Root Worm): A 24-well microtiter plate (MTP) with artificial diet was treated with test solutions at an application rate of 200 ppm (concentration in well 18 ppm) by pipetting. After drying, the MTP's were infested with L2 larvae (6-10 per well). After an incubation period of 5 days, samples were checked for larval mortality and growth regulation. The following compound gave at least 80% control of Diabrotica balteata: A1, A2, A3, A4, A5, A6, A7, A8, A9, A10, A11, A12, A13, A14, A16, A17, A18, A19, A20. Thrips Tabaci (Onion Thrips): Sunflower leaf discs were placed on agar in a 24-well microtiter plate and sprayed with test solutions at an application rate of 200 ppm. After drying, the leaf discs were infested with an […] population of mixed ages. After an incubation period of 7 days, samples were checked for mortality. The following compounds gave at least 80% control of Thrips tabaci: A1, A2, A3, A4, A5, A6, A7, A8, A9, A10, A14, A16, A17, A18, A19, A20. Tetranychus Urticae (Two-Spotted Spider Mite): Bean leaf discs on agar in 24-well microtiter plates were sprayed with test solutions at an application rate of 200 ppm. After drying, the leaf discs are infested with mite populations of mixed ages. 8 days later, discs are checked for egg mortality, larval mortality, and adult mortality. The following compounds gave at least 80% control of Tetranychus urticae: A1, A2, A3, A4, A5, A6, A7, A8, A9, A10, A11, A12, A13, A14, A15, A16, A17, A19, A20.

Tetranychus urticae = Tetranychus urticae (two-spotted spider mite) bean leaf disc spray test; details: foliar, 192 h, read-out: control of Tetranychus urticae
Procedure: as §1, §2

Spodoptera littoralis = Spodoptera littoralis (Egyptian cotton leafworm) leaf disc spray test; details: foliar, 72 h, application rate 200 ppm, cotton leaf discs, 5 L1 larvae, mortality, feeding behavior and growth regulation 3 days after treatment
Procedure: as §1, §2

Diabrotica balteata = Diabrotica balteata (corn root worm) artificial diet test; details: 120 h, application rate 200 ppm (concentration in well 18 ppm), L2 larvae, larval mortality and growth regulation after 5 days
Procedure: as §1, §2

Thrips tabaci = Thrips tabaci (onion thrips) sunflower leaf disc spray test; details: foliar, 168 h, application rate 200 ppm, sunflower leaf discs, population of mixed ages, mortality after 7 days
Procedure: as §1, §2

Plutella xylostella = Plutella xylostella (diamond back moth) artificial diet test; details: 144 h, application rate 200 ppm (concentration in well 18 ppm), L2 larvae, larval mortality and growth regulation after 6 days
Procedure: as §1, §2

[1] = application rate 200 ppm, bean leaf discs, mite populations of mixed ages, egg, larval and adult mortality 8 days later

Measured: pest or weed control at 200 ppm

Cc1cc(C#N)ccc1C(=O)Nc1c(C#N)ccc(C(=O)Nc2c(Cl)cc(C(F)(C(F)(F)F)C(F)(F)C(F)(F)F)cc2Br)c1F (stereo not shown) [A6, N-[2-bromo-6-chloro-4-(1,2,2,3,3,3-hexafluoro-1-trifluoromethylpropyl)-phenyl]-4-cyano-3-(4′-cyano-2′-methylbenzoylamino)-2-fluorobenzamide]
≥ 80%: Heliothis virescens | Tetranychus urticae; [1] | Spodoptera littoralis | Diabrotica balteata | Thrips tabaci | Plutella xylostella

Cc1cc(C#N)ccc1C(=O)Nc1cc(C(=O)Nc2c(Br)cc(C(F)(C(F)(F)F)C(F)(F)C(F)(F)F)cc2Br)ccc1C#N (stereo not shown) [A4, 4-cyano-3-(4′-cyano-2′-methylbenzoylamino)-N-[2,6-dibromo-4-(1,2,2,3,3,3-hexafluoro-1-trifluoromethylpropyl)phenyl]benzamide]
≥ 80%: Heliothis virescens | Tetranychus urticae; [1] | Spodoptera littoralis | Diabrotica balteata | Thrips tabaci | Plutella xylostella

Cc1cc(C#N)ccc1C(=O)Nc1cc(C(=O)Nc2c(Cl)cc(C(F)(C(F)(F)F)C(F)(F)F)c(F)c2Cl)ccc1C#N [A14, 4-cyano-3-(4′-cyano-2′-methylbenzoylamino)-N-[2,6-dichloro-3-fluoro-4-(1,2,2,2-tetrafluoro-1-trifluoromethylethyl)phenyl]benzamide]
≥ 80%: Heliothis virescens | Tetranychus urticae; [1] | Spodoptera littoralis | Diabrotica balteata | Thrips tabaci | Plutella xylostella

Cc1cc(C#N)ccc1C(=O)Nc1c(C#N)ccc(C(=O)Nc2c(Cl)cc(C(F)(C(F)(F)F)C(F)(F)C(F)(F)F)cc2Cl)c1F (stereo not shown) [A18, 4-cyano-3-(4′-cyano-2′-methylbenzoylamino)-N-[2,6-dichloro-4-(1,2,2,3,3,3-hexafluoro-1-trifluoromethylpropyl)phenyl]-2-fluorobenzamide]
≥ 80%: Heliothis virescens | Spodoptera littoralis | Diabrotica balteata | Thrips tabaci | Plutella xylostella

Cc1cc(C#N)ccc1C(=O)Nc1cc(C(=O)Nc2c(Cl)cc(C(F)(C(F)(F)F)C(F)(F)F)cc2Cl)ccc1C#N [A19, 4-cyano-3-(4′-cyano-2′-methylbenzoylamino)-N-[2,6-dichloro-4-(1,2,2,2-tetrafluoro-1-trifluoromethylethyl)phenyl]benzamide]
≥ 80%: Heliothis virescens | Tetranychus urticae; [1] | Spodoptera littoralis | Diabrotica balteata | Thrips tabaci | Plutella xylostella

Cc1cc(C#N)ccc1C(=O)Nc1cc(C(=O)Nc2c(C)cc(C(F)(C(F)(F)F)C(F)(F)C(F)(F)F)cc2C)ccc1C#N (stereo not shown) [A16, 4-cyano-3-(4′-cyano-2′-methyl-benzoylamino)-N-[2,6-dimethyl-4-(1,2,2,3,3,3-hexafluoro-1-trifluoromethylpropyl)phenyl]benzamide]
≥ 80%: Heliothis virescens | Tetranychus urticae; [1] | Spodoptera littoralis | Diabrotica balteata | Thrips tabaci | Plutella xylostella

Cc1cc(C#N)ccc1C(=O)Nc1cc(C(=O)Nc2c(C)cc(C3(F)C(F)(F)C(F)(F)C(F)(F)C(F)(F)C3(F)F)cc2C)ccc1C#N [A17, 4-cyano-3-(4′-cyano-2′-methylbenzoylamino)-N-[2,6-dimethyl-4-(undecafluorocyclohexyl)phenyl]benzamide]
≥ 80%: Heliothis virescens | Tetranychus urticae | Spodoptera littoralis | Diabrotica balteata | Thrips tabaci | Plutella xylostella

Cc1cc(C#N)ccc1C(=O)Nc1cc(C(=O)Nc2c(Cl)cc(C(F)(C(F)(F)F)C(F)(F)F)cc2Br)ccc1C#N [A20, 4-cyano-3-(4′-cyano-2′-methylbenzoylamino)-N-[2-bromo-6-chloro-4-(1,2,2,2-tetrafluoro-1-trifluoromethylethyl)phenyl]benzamide]
≥ 80%: Heliothis virescens | Tetranychus urticae; [1] | Spodoptera littoralis | Diabrotica balteata | Thrips tabaci | Plutella xylostella

CCc1cc(C(F)(C(F)(F)F)C(F)(F)C(F)(F)F)cc(Br)c1NC(=O)c1ccc(C#N)c(NC(=O)c2ccc(C#N)cc2C)c1 (stereo not shown) [A5, N-[2-bromo-6-ethyl-4-(1,2,2,3,3,3-hexafluoro-1-trifluoromethylpropyl)-phenyl]-4-cyano-3-(4′-cyano-2′-methylbenzoylamino)benzamide]
≥ 80%: Heliothis virescens | Tetranychus urticae; [1] | Spodoptera littoralis | Diabrotica balteata | Thrips tabaci | Plutella xylostella

CCc1cc(C(O)(C(F)(F)F)C(F)(F)C(F)(F)F)cc(C)c1NC(=O)c1ccc(C#N)c(NC(=O)c2ccc(C#N)cc2C)c1 (stereo not shown) [A15, 4-cyano-3-(4′-cyano-2′-methyl-benzoylamino)-N-[2-ethyl-6-methyl-4-(2,2,3,3,3-pentafluoro-1-hydroxy-1-trifluoromethylpropyl)phenyl]benzamide]
≥ 80%: Heliothis virescens | Tetranychus urticae; [1] | Spodoptera littoralis | Plutella xylostella

Cc1cc(C#N)ccc1C(=O)Nc1cc(C(=O)Nc2c(Cl)cc(C(OC(=O)c3ccccc3)(C(F)(F)F)C(F)(F)F)cc2Br)ccc1C#N [A12, benzoic acid 1-{3-bromo-5-chloro-4-[4-cyano-3-(4-cyano-2-methyl-benzoylamino)benzoylamino]phenyl}-2,2,2-trifluoro-1-trifluoromethylethyl ester]
≥ 80%: Heliothis virescens | Tetranychus urticae; [1] | Spodoptera littoralis | Diabrotica balteata | Plutella xylostella

Cc1cc(C#N)ccc1C(=O)Nc1cc(C(=O)Nc2c(Cl)cc(C(O)(C(F)(F)F)C(F)(F)F)cc2Br)ccc1C#N [A13, N-[2-bromo-6-chloro-4-[1,1,1,3,3,3-hexafluoropropan-2-ol)phenyl]-4-cyano-3-(4′-cyano-2′-methylbenzoylamino)benzamide]
≥ 80%: Tetranychus urticae; [1] | Diabrotica balteata | Plutella xylostella

COc1cc(C(F)(C(F)(F)F)C(F)(F)C(F)(F)F)cc(C)c1NC(=O)c1ccc(C#N)c(NC(=O)c2ccc(C#N)cc2C)c1 (stereo not shown) [A11, 4-cyano-3-(4′-cyano-2′-methylbenzoylamino)-N-[2-methoxy-6-methyl-4-(1,2,2,3,3,3-hexafluoro-1-trifluoromethylpropyl)phenyl]benzamide]
≥ 80%: Heliothis virescens | Tetranychus urticae; [1] | Spodoptera littoralis | Diabrotica balteata | Plutella xylostella
